Reference: PubChem BioAssay AID248 (DTP/NCI, 2004)
Several values for one entry are separate records, joined by “and”; a condition that tells them apart may be missing. Identical values can stand only once. Inconclusive results and toxic doses are left out. Cut-off read from the data, not from the text of the source: active = T/C of 150% or more; inactive = T/C below 125%.

System: L1210 leukemia ip in BDF1 mice, survival T/C
Assay: NCI In Vivo Anticancer Drug Screen. Data for tumor model L1210 Leukemia (intraperitoneal) in B6D2F1 (BDF1) mice
Details: endpoint: mean survival time, higher = longer survival
In short: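 Value reflects the ratio of survival in compound-treated mice to survival in vehicle-treated controls, with both groups carrying the same transplanted tumor.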

[1] = dose: 100.0 mg/kg/injection, schedule: Q01DX001 (ip), vehicle: saline
[2] = dose: 100.0 mg/kg/injection, schedule: Q01DX009 (ip), vehicle: saline
[3] = dose: 200.0 mg/kg/injection, schedule: Q01DX001 (ip), vehicle: saline
[4] = dose: 200.0 mg/kg/injection, schedule: Q01DX009 (ip), vehicle: saline
[5] = dose: 400.0 mg/kg/injection, schedule: Q01DX001 (ip), vehicle: saline
[6] = dose: 50.0 mg/kg/injection, schedule: Q01DX001 (ip), vehicle: saline

Measured: T/C

CCc1ccc(/C=C/c2ccc[nH]2)[n+](C)c1
inactive: dose: 5.0 mg/kg/injection, schedule: Q01DX001 (ip), vehicle: carboxymethylcellulose (CMC) 94 % of control | dose: 10.0 mg/kg/injection, schedule: Q01DX001 (ip), vehicle: carboxymethylcellulose (CMC) 94 % of control | dose: 20.0 mg/kg/injection, schedule: Q01DX001 (ip), vehicle: carboxymethylcellulose (CMC) 89 % of control | dose: 40.0 mg/kg/injection, schedule: Q01DX001 (ip), vehicle: carboxymethylcellulose (CMC) 96 % of control | dose: 80.0 mg/kg/injection, schedule: Q01DX001 (ip), vehicle: carboxymethylcellulose (CMC) 91 % of control

Cc1[nH]c(=O)[nH]c(=O)c1/C=C/C(=O)O
inactive: [1] 97 % of control | [2] 108 % of control | [3] 100 % of control | [4] 102 % of control | [5] 97 % of control | dose: 400.0 mg/kg/injection, schedule: Q01DX009 (ip), vehicle: saline 106 % of control

CC(CO)(CO)N=Cc1ccccc1
inactive: [6] 112 % of control | [1] 112 % of control | [3] 100 % of control | [5] 100 % of control

Ic1ccc(C2CC(c3ccccc3)=NN2c2ccccc2)cc1 (configuration not stated)
inactive: dose: 100.0 mg/kg/injection, schedule: Q01DX009 (ip), vehicle: saline with Tween-80 96 % of control | dose: 200.0 mg/kg/injection, schedule: Q01DX009 (ip), vehicle: saline with Tween-80 92 % of control | dose: 400.0 mg/kg/injection, schedule: Q01DX009 (ip), vehicle: saline with Tween-80 91 % of control

NC(=O)NNC(=O)NNC(N)=O
inactive: dose: 50.0 mg/kg/injection, schedule: Q01DX001 (ip), vehicle: carboxymethylcellulose (CMC) 95 % of control | dose: 100.0 mg/kg/injection, schedule: Q01DX001 (ip), vehicle: carboxymethylcellulose (CMC) 95 % of control | dose: 200.0 mg/kg/injection, schedule: Q01DX001 (ip), vehicle: carboxymethylcellulose (CMC) 95 % of control | dose: 400.0 mg/kg/injection, schedule: Q01DX001 (ip), vehicle: carboxymethylcellulose (CMC) 103 % of control

C[C@]12CC[C@H](OC3OC(CO)C(O)C(O)C3O)C[C@H]1CC[C@@H]1[C@@H]2CC[C@]2(C)[C@@H](C3=CCOC3=O)CC[C@]12O (some centres not stated)
inactive: dose: 0.5 mg/kg/injection, schedule: Q01DX001 (ip), vehicle: saline 103 % of control | dose: 0.5 mg/kg/injection, schedule: Q01DX010 (ip), vehicle: saline 98 % of control | dose: 1.0 mg/kg/injection, schedule: Q01DX001 (ip), vehicle: saline 105 % of control | dose: 1.0 mg/kg/injection, schedule: Q01DX010 (ip), vehicle: saline 107 % of control | dose: 2.0 mg/kg/injection, schedule: Q01DX001 (ip), vehicle: saline 105 % of control | dose: 2.0 mg/kg/injection, schedule: Q01DX010 (ip), vehicle: saline 107 % of control | dose: 4.0 mg/kg/injection, schedule: Q01DX001 (ip), vehicle: saline 103 % of control | dose: 8.0 mg/kg/injection, schedule: Q01DX001 (ip), vehicle: saline 103 % of control | dose: 16.0 mg/kg/injection, schedule: Q01DX001 (ip), vehicle: saline 108 % of control

NCCOc1ccc([N+](=O)[O-])cc1Cl
inactive: dose: 50.0 mg/kg/injection, schedule: Q01DX009 (ip), vehicle: saline 93 % of control | dose: 75.0 mg/kg/injection, schedule: Q01DX001 (ip), vehicle: other 96 % of control | [2] 98 % of control | dose: 100.0 mg/kg/injection, schedule: Q04DX003 (ip), vehicle: saline 121 % of control | dose: 150.0 mg/kg/injection, schedule: Q01DX001 (ip), vehicle: other 100 % of control | [4] 96 % of control | dose: 200.0 mg/kg/injection, schedule: Q04DX003 (ip), vehicle: saline 103 % of control | dose: 300.0 mg/kg/injection, schedule: Q01DX001 (ip), vehicle: other 96 % of control

CCCC[As](=O)(O)C(C)C
inactive: dose: 1.56 mg/kg/injection, schedule: Q01DX009 (ip), vehicle: saline 100 % of control | dose: 3.12 mg/kg/injection, schedule: Q01DX009 (ip), vehicle: saline 100 % of control | dose: 3.12 mg/kg/injection, schedule: Q04DX003 (ip), vehicle: saline 112 % of control | dose: 6.25 mg/kg/injection, schedule: Q04DX002 (ip), vehicle: saline 120 % of control | dose: 6.25 mg/kg/injection, schedule: Q04DX003 (ip), vehicle: saline 107 % of control | dose: 12.5 mg/kg/injection, schedule: Q01DX001 (ip), vehicle: saline 112 % of control | dose: 12.5 mg/kg/injection, schedule: Q04DX002 (ip), vehicle: saline 110 % of control | dose: 12.5 mg/kg/injection, schedule: Q04DX003 (ip), vehicle: saline 118 % of control | dose: 25.0 mg/kg/injection, schedule: Q01DX001 (ip), vehicle: saline 117 % of control | dose: 25.0 mg/kg/injection, schedule: Q01DX009 (ip), vehicle: saline 106 % of control and 111 % of control | dose: 25.0 mg/kg/injection, schedule: Q04DX003 (ip), vehicle: saline 105 % of control | [6] 103 % of control | dose: 50.0 mg/kg/injection, schedule: Q04DX002 (ip), vehicle: saline 117 % of control
